Like-named read-outs stand apart in the source and are kept apart here.
Legend:
platelet aggregation = details: cited from earlier work
[1] = system: lymphatic smooth muscle contraction; details: rats, applied topically; cited from earlier work
[2] = cited from earlier work
[3] = tolerance interval analysis, probability that Cmax >=6 μg/mL; parameters: species or system human; details: 99% confidence
Method: Tolerance intervals were calculated at a 99% level of confidence.

[4] = 41 procedures, 14 subjects, 19.2 to 52 mg/kg, over the 24-hour study period
Method: Volunteers participated in 1 to 2 infiltration studies without liposuction and then one study with tumescent liposuction totally by local anesthesia.
Individual subjects served as their own controls. Large volume (≥500 mL) tumescent infiltration was accomplished using a peristaltic tumescent infiltration pump (HKSurgical.com, San Clemente, Calif.).
Serum samples were obtained from a peripheral vein using an indwelling 20-gauge IV catheter by a 2-syringe sampling technique. The first syringe contained 2 mL saline to flush the IV catheter and then remove and discard 2 mL of blood.
For each subject, the initial infiltration procedures were done without subsequent liposuction, and the final tumescent infiltration was followed by liposuction after allowing at least 1 hour of detumescence for gradual dispersion of subcutaneous tumescent fluid. Tumescent infiltration procedures were separated by at least 1 week. The liposuction aspirate was collected in clear plastic volumetric canisters. After allowing at least 1 hour for gravitational separation of the lipid and aqueous aspirate, the resulting supernatant fat, infranatant blood-tinged tumescent anesthetic solution, and the total aspirate volume were recorded.
AUC∞, Cmax, and Tmax without and with liposuction were compared by the paired t test.

[5] = Source text: Heart rates, before, during, and after tumescent infiltration and immediately after liposuction were compared.
Bee Venom sPLA2 = Bee Venom sPLA2 (Apis mellifera, UniProt P00630); details: cited from earlier work
Sequence of Bee Venom sPLA2 (P00630 34-167 limits assumed): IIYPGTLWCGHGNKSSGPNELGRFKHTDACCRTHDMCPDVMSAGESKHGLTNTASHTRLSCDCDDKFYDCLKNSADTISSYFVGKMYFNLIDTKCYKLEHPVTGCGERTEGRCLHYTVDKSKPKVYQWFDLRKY

snake venoms = details: mice; cited from earlier work
sPLA2 activity in serum [6] = details: human serum; read-out: IC50, inhibitory effect on sPLA2 activity in serum; cited from earlier work
sPLA2 activity in serum [7] = details: guinea pig serum; read-out: IC50, inhibitory effect on sPLA2 activity in serum; cited from earlier work
sPLA2 activity in serum [8] = details: rabbit serum; read-out: IC50, inhibitory effect on sPLA2 activity in serum; cited from earlier work
sPLA2 activity in serum [9] = details: rat serum; read-out: IC50, inhibitory effect on sPLA2 activity in serum; cited from earlier work
[10] = precipitation on mixing acyclovir, lidocaine and epinephrine; type: physicochemical
Source text: Some drugs are considered incompatible because of precipitation when mixed together in the same solution. […] This tumescent solution can be safely and painlessly injected subcutaneously into a human patient. This is surprising and unexpected because the FDA approved package insert labeling for acyclovir for IV infusion states explicitly the subcutaneous delivery must be avoided. Similar increased solubility and drug-drug compatibility of mixtures of multiple contravenom drugs can be expected with sufficient tumescent dilution. This is a unique and unexpected advantage of tumescent contravenom delivery.

[11] = with liposuction, epinephrine dose 1.6 to 4.3 mg
[12] = without liposuction, epinephrine dose 1.2 to 4.3 mg

SMILES: CCN(CC)CC(=O)Nc1c(C)cccc1C [lidocaine]
- lidocaine concentrations that consistently inhibit in-vitro platelet aggregation (platelet aggregation; aggregation induced by ADP, epinephrine and collagen): ≥ 0.5 mg/mL
- effect on platelet aggregation (platelet aggregation; at safe systemic concentrations (e.g. ≤6 micrograms/ml)): no effect
- platelet aggregation induced by ADP (platelet aggregation): inhibit
- lymph transit time [1]: prolong
- survival time after injection of venom [1]: increase
- recommended maximal dosage, FDA-approved package insert labeling ([2]; lidocaine with epinephrine, infiltration local anesthesia): 7 mg/kg
- maximal safe dosage recommended by American Society for Dermatologic Surgery guidelines ([2]; liposuction totally by local anesthesia): 55 mg/kg
- risk of lidocaine serum concentration >6 μg/mL ([3]; No liposuction, 40 mg/kg): 1/750
- risk of lidocaine serum concentration >6 μg/mL ([3]; No liposuction, 50 mg/kg): 1/15
- risk of lidocaine serum concentration >6 μg/mL ([3]; No liposuction, 55 mg/kg): 1/4
- risk of lidocaine serum concentration >6 μg/mL ([3]; No liposuction, […] mg/kg): 1/80
- risk of lidocaine serum concentration >6 μg/mL ([3]; With liposuction, 50 mg/kg): 1/500
- risk of lidocaine serum concentration >6 μg/mL ([3]; With liposuction, 55 mg/kg): 1/100
- measured serum lidocaine concentrations, all [4]: < 6 µg/mL
- lidocaine-associated adverse event ([5]; one subject, body mass index 20, 45 mg/kg without liposuction, approximately 12 hours after infiltration): transient nausea

SMILES: CCc1c(C(=O)C(N)=O)c2c(OCC(=O)OC)cccc2n1Cc1ccccc1 [Me-Varespladib, methyl varespladib]
- IC50, sPLA2 inhibition (Bee Venom sPLA2): *Indeterminate

SMILES: CCOC(=O)c1ccc(N)cc1 [benzocaine]
- platelet aggregation induced by ADP (platelet aggregation): inhibit

SMILES: CNC[C@H](O)c1ccc(O)c(O)c1 [epinephrine]
- clinical evidence of toxicity ([5]; 14 subjects, 41 procedures): no clinical evidence
- episodes of tachycardia ([5]; 41 studies, most patients received oral clonidine 0.1 mg): no episodes
- mean difference in heart rate before infiltration and after liposuction [5, 11]: +5
- range of difference in heart rate before infiltration and after liposuction [5, 11]: −12 to +33
- mean difference in heart rate before and after infiltration [5, 12]: −3.4
- range of difference in heart rate before and after infiltration [5, 12]: −24 to +17

SMILES: CCc1c(C(=O)C(N)=O)c2c(OCC(=O)O)cccc2n1Cc1ccccc1 [Varespladib]
- neutralizing a wide variety of snake venoms (snake venoms): effective
- IC50 (sPLA2 activity in serum [6]): 6.2 nM
- IC50 (sPLA2 activity in serum [7]): 3.2 nM
- IC50 (sPLA2 activity in serum [8]): 5 nM
- IC50 (sPLA2 activity in serum [9]): 8.1 nM

SMILES: CCCCN1CCCCC1C(=O)Nc1c(C)cccc1C (centres unmarked) [bupivacaine]
- platelet aggregation induced by ADP (platelet aggregation): inhibit

SMILES: Nc1nc2c(ncn2COCCO)c(=O)[nH]1 [acyclovir]
- precipitation on mixing ([10]; 1 gm acyclovir (1 g/20 ml) with 1 gram lidocaine (1 gram/100 ml) with epinephrine (1 mg/L), 120 ml mixture): immediate precipitation
- precipitation on mixing ([10]; 1 gm acyclovir and 1 gm lidocaine in 100 ml, 250 ml and 500 ml of saline): precipitation
- precipitation on mixing ([10]; 1 gm acyclovir, 1 gm lidocaine and 1 mg epinephrine in 1000 ml of saline): no precipitation
